Marks after values point to notes of the source that are not given here.
Test system: Candida albicans B 311
Assay: disc diffusion, zone of inhibition on seeded agar plates
Format: cell-based
Conditions: for Zone Size: Table I, glucose as carbon source, composition of 1 unit by weight aculeacin A + 5 units fatty acid; for Zone Size / Zone Size YNB agar: YNB agar; for Zone Size / Zone Size Sabouarud Agar / Zone Size YNB agar / Zone Size B 311: 16-18 h; for Zone Size / Zone Size B 311: 28-37°C; for Zone Size Sabouarud Agar / Zone Size YNB agar: Table II, 37°C; for Zone Size Sabouarud Agar: Sabouarud dextrose agar; for Zone Size YNB agar: lysine; for Zone Size B 311: Tables IV-b, IV-c
Method: The antifungal activity of aculeacin A and the compositions of aculeacin A and fatty acids was measured by disc diffusion.
The effects of a number of fatty acids on the antifungal activity of aculeacin A were determined by utilizing seeded plates of Candida albicans B 311 in yeast nitrogen base (YNB) agar (Difco) with glucose as the carbon source. A composition containing one unit by weight of aculeacin A and 5 units of fatty acid or the sodium salt thereof was spotted on the seeded plates and the size of the zone of inhibition after 16-18 hours incubation at 28-37 °C was measured.
Additional fatty acids were tested to determine , if they increased the intrinsic activity of aculeacin A against C. albicans B 311 utilizing seeded plates of YNB agar (Difco) with lysine as the carbon source and seeded plates of Sabouarud dextrose agar (Difco). Compositions containg one µg of aculeacin A and various amounts of the fatty acid was spotted on the seeded plates and the size of the zone of inhibition after 16-18 hours incubation at 37 °C was measured.
The antifungal effects of compositions containing a single amount of oleic acid as the sodium salt while varying the amounts of aculeacin A were determined by utilizing seeded plates of Candida albicans B 311 in Sabouarud dextrose agar and measuring the zone of inhibition after 16-18 hours incubation at 28-37°C.
The antifungal effects of compositions containing a single amount of aculeacin A while varying the amounts. of oleic acid as the sodium salt were determined by utilizing seeded plates of Candida albicans strains B 311, BC 759 and B 3153A and measuring the zone of inhibition after 16-18 hours at 28-37°C. This test was also performed with linoleic acid and linolenic acid.
The seeded plates of Candida albicans strains B 311, BC 759, and B 3153A were prepared by inoculating 50 ml of trypticase soy broth (BBL) with one ml of the preserved frozen culture and incubating the inoculum at 37°C for 7 hours on a rotary shaker. Two milliliters of this culture were used to inoculate one liter of Sabouarud dextrose agar (Difco) at 50°C and 15 milliliters of the resultant medium poured into 150 mm petri-dishes.

[1] = aculeacin A 0 µg, fatty acid 250 µg alone
[2] = aculeacin A 0 µg, fatty acid 500 µg alone
[3] = aculeacin A 0 µg, fatty acid 1000 µg alone
[4] = composition of aculeacin A 1 µg + fatty acid 250 µg
[5] = composition of aculeacin A 1 µg + fatty acid 500 µg
[6] = composition of aculeacin A 1 µg + fatty acid 1000 µg
[7] = aculeacin A 0 µg, fatty acid 2000 µg alone
[8] = composition of aculeacin A 1 µg + fatty acid 2000 µg
[9] = aculeacin A 0 µg, fatty acid 50 µg alone
[10] = aculeacin A 0 µg, fatty acid 100 µg alone
[11] = aculeacin A 0 µg, fatty acid 200 µg alone
[12] = composition of aculeacin A 1 µg + fatty acid 50 µg
[13] = composition of aculeacin A 1 µg + fatty acid 100 µg
[14] = composition of aculeacin A 1 µg + fatty acid 200 µg

Row | Compound | Zone Size [mm] | Zone Size Sabouarud Agar [2] [mm] | Zone Size Sabouarud Agar [3] [mm] | Zone Size Sabouarud Agar [5] | Zone Size Sabouarud Agar [6] | Zone Size YNB agar [2] [mm] | Zone Size YNB agar [3] [mm] | Zone Size YNB agar [5] [mm] | Zone Size YNB agar [6] [mm] | further results
1 | CCCCCCCCCCCCCCCCCC(=O)O [Stearic Acid] | 15 | – | – | – | – | – | – | – | – | –
2 | CCCCC/C=C/C/C=C/CCCCCCCC(=O)O [Linoelaidic Acid] | – | 0 | 0 | 20* mm | 24* mm | 0 | 0 | 17 | 16 | Zone Size Sabouarud Agar [1]: 0 mm; Zone Size Sabouarud Agar [4]: 20* mm; Zone Size YNB agar [1]: 0 mm; Zone Size YNB agar [4]: 26 mm; increase in the intrinsic activity of aculeacin A (composition of 250 units by weight fatty acid to one unit aculeacin A, Table II test): surprising increase in the intrinsic activity of aculeacin A
3 | CCCCCCCC/C=C/CCCCCCCC(=O)O [Eladic Acid] | – | 0 | 0 | 15 mm | 13 mm | 0 | 0 | 13 | 13 | Zone Size Sabouarud Agar [1]: 0 mm; Zone Size Sabouarud Agar [4]: 18 mm; Zone Size YNB agar [1]: 0 mm; Zone Size YNB agar [4]: 13 mm
4 | CCCCCCCC(=O)O [Caprylic Acid] | 16 | – | – | – | – | – | – | – | – | –
5 | CCCCCC/C=C/CCCCCCCC(=O)O [Palmitelaidic Acid] | – | 0 | 0 | 30 mm | 32 mm | 0 | 0 | 20 | 20 | Zone Size Sabouarud Agar [7]: 0 mm; Zone Size Sabouarud Agar [8]: 25 mm; Zone Size YNB agar [7]: 0 mm; Zone Size YNB agar [8]: 22 mm
6 | CCCCCCCCCC(=O)O [Decanoic Acid] | 17 | – | – | – | – | – | – | – | – | –
7 | CCCCCCCCCCCCCCCC(=O)O [Palmitic Acid] | 15 | – | – | – | – | – | – | – | – | –
8 | CCCCCCCCCCCCCCCCCCCCCC(=O)O [Behenic Acid] | – | 0 | 0 | 14 mm | 20 mm | 0 | 0 | 14 | 15 | Zone Size Sabouarud Agar [1]: 0 mm; Zone Size Sabouarud Agar [4]: 15 mm; Zone Size YNB agar [1]: 0 mm; Zone Size YNB agar [4]: 14 mm
9 | CC/C=C\C/C=C\C/C=C\CCCCCCCC(=O)O [Linolenic Acid] | 22 | – | – | – | – | – | – | – | – | Zone Size B 311 (aculeacin A 0 µg, fatty acid 28.1 µg alone): 0 mm; Zone Size B 311 (aculeacin A 0 µg, fatty acid 56.2 µg alone): 0 mm; Zone Size B 311 (aculeacin A 0 µg, fatty acid 112.5 µg alone): 0 mm; Zone Size B 311 (aculeacin A 0.625 µg + fatty acid 28.1 µg): 20 mm; Zone Size B 311 (aculeacin A 0.625 µg + fatty acid 56.2 µg): 19 mm; Zone Size B 311 (aculeacin A 0.625 µg + fatty acid 112.5 µg): 19 mm
10 | Homo-γ-Linoleic Acid | – | – | – | – | – | – | – | – | – | Zone Size Sabouarud Agar [9]: 0 mm; Zone Size Sabouarud Agar [10]: 0 mm; Zone Size Sabouarud Agar [11]: 0 mm; Zone Size Sabouarud Agar [12]: 15 mm; Zone Size Sabouarud Agar [13]: 15 mm; Zone Size Sabouarud Agar [14]: 15 mm; Zone Size YNB agar [9]: 0 mm; Zone Size YNB agar [10]: 0 mm; Zone Size YNB agar [11]: 0 mm; Zone Size YNB agar [12]: 15* mm; Zone Size YNB agar [13]: 15* mm; Zone Size YNB agar [14]: 17* mm
11 | CCCCCC/C=C/CCCCCCCCCC(=O)O [Vaccinic Acid] | – | 0 | 0 | 25 mm | 25 mm | 0 | 0 | 17 | 17 | Zone Size Sabouarud Agar [7]: 0 mm; Zone Size Sabouarud Agar [8]: 26 mm; Zone Size YNB agar [7]: 0 mm; Zone Size YNB agar [8]: 17 mm
